Patent US12570655B2, “Cysteine covalent modifiers of AKT1 and uses thereof” (Terremoto Biosciences, Inc., priority 2023, dated 2026)
Read-outs that look alike come from different tables or passages of the source.

Experiments:
Assay type in all cases: cell-based
AKT2 = target: T1, AKT2 (Homo sapiens, UniProt P31751); test: Live cell AKT2 target engagement by NanoBRET competitive probe displacement; settings: HEK293 cells transfected with kinase-NanoLuciferase fusion, 2 h at 37° C.
T1 construct: expressed in transfected cells; host or cells: HEK293
T1 sequence (P31751 whole entry, the tested form may be a part): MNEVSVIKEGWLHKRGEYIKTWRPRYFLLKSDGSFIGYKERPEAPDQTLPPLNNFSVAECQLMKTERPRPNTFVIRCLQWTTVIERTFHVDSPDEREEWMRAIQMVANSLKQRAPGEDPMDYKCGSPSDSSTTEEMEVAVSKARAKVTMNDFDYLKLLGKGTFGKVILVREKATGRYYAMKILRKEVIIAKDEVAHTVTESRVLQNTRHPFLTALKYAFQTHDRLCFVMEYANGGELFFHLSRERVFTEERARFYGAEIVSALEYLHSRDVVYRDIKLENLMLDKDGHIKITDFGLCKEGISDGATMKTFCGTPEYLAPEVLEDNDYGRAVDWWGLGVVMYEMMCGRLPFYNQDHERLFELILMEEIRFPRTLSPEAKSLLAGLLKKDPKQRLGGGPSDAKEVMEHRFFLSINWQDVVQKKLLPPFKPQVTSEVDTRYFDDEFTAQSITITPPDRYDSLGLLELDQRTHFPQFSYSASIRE
Summary of the method: (§1)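 IC50 fitted (Hill, log inhibitor vs response) to BRET signal, E600/E460 ratio, measured with extracellular NanoLuc inhibitor present. Intact transfected HEK293 cells bearing NanoLuc-tagged kinase were co-incubated 2 h, 37 °C, with compound dilution series and ~EC50 ATP-competitive fluorescent tracer.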

[1] = test system: LAPC4 prostate cancer cells; test: Antiproliferative effects in LAPC4 cells (CellTiter Glo); settings: LAPC4 cells (AKT1 E17K allele), read-out: LAPC4 proliferation IC50
Summary of the method: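 Growth inhibition was measured by CellTiter Glo ATP luminescence after 72 h compound exposure of 1,000 seeded cells/well. The cells were AKT1 E17K-expressing LAPC4 prostate cancer cells maintained in IMDM plus 12% FBS. IC50 values came from Hill-equation fits.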

AKT1 E17K = target: T2, AKT1 E17K (Homo sapiens, UniProt P31749, E17K); test: Live cell AKT1 E17K target engagement by NanoBRET competitive probe displacement; settings: HEK293 cells transfected with kinase-NanoLuciferase fusion, 2 h at 37° C.
T2 construct: expressed in transfected cells; host or cells: HEK293
T2 sequence (P31749 whole entry E17K, the tested form may be a part): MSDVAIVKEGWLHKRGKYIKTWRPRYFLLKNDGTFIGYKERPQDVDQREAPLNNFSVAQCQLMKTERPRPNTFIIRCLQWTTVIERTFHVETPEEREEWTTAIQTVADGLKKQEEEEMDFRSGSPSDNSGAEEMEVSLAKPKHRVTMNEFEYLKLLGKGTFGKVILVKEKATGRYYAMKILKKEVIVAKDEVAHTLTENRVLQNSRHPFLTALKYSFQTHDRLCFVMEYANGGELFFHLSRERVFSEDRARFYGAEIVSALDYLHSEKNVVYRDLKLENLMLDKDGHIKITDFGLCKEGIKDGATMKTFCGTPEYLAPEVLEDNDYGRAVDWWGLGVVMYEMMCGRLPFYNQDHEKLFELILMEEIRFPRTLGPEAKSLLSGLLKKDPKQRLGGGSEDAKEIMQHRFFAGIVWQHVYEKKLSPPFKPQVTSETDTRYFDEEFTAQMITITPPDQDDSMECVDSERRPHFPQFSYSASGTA
Summary of the method: as §1

AKT1 WT = target: T3, AKT1 WT (Homo sapiens, UniProt P31749); test: Live cell AKT1 WT target engagement by NanoBRET competitive probe displacement; settings: HEK293 cells transfected with kinase-NanoLuciferase fusion, 2 h at 37° C.
T3 construct: expressed in transfected cells; host or cells: HEK293
T3 sequence (P31749 whole entry, the tested form may be a part): as the sequence (P31749 whole entry E17K, the tested form may be a part) above, with K17E counted along it
Summary of the method: as §1

| SMILES | IC50 (AKT2) [µM] | IC50 ([1]; Homo sapiens, LAPC4, 72 h) [µM] | IC50 (AKT1 E17K) [µM] | IC50 (AKT1 WT) [µM] | IC50 ([1]; 72 h) [µM] |
| --- | --- | --- | --- | --- | --- |
| C=CC(=O)N1CC2CC[C@@H]1CC2N[C@H]1CCc2cc(-n3c(-c4cccnc4N)nc4ccc(-n5cccn5)nc43)ccc21 (single isomer, unassigned) [Example 131, 1-[(1R,4R,5*)-5-{[(1S)-5-[2-(2-aminopyridin-3-yl)-5-(pyrazol-1-yl)imidazo[4,5-b]pyridin-3-yl]-2,3-dihydro-1H-inden-1-yl]amino}-2-azabicyclo[2.2.2]octan-2-yl]prop-2-en-1-one] | 9.53 | 1.84 | > 1 | > 1 | – |
| C=CC(=O)N1CC2CC[C@@H]1CC2N[C@H]1CCc2cc(-n3c(-c4cccnc4N)nc4ccc(-n5cccn5)nc43)ccc21 (single isomer, unassigned) [Example 132, 1-[(1R,4R,5*)-5-{[(1S)-5-[2-(2-aminopyridin-3-yl)-5-(pyrazol-1-yl)imidazo[4,5-b]pyridin-3-yl]-2,3-dihydro-1H-inden-1-yl]amino}-2-azabicyclo[2.2.2]octan-2-yl]prop-2-en-1-one] | 2.25 | – | 0.326 | 0.0975 | 1.51 |
| C=CC(=O)N1CC2CC[C@H]1CC2N[C@H]1CCc2cc(-n3c(-c4cccnc4N)nc4ccc(-n5cccn5)nc43)ccc21 (single isomer, unassigned) [Example 133, 1-[(1S,4S,5*)-5-{[(1S)-5-[2-(2-aminopyridin-3-yl)-5-(pyrazol-1-yl)imidazo[4,5-b]pyridin-3-yl]-2,3-dihydro-1H-inden-1-yl]amino}-2-azabicyclo[2.2.2]octan-2-yl]prop-2-en-1-one] | 0.047 | – | 0.0134 | 0.00971 | 0.0163 |
| C=CC(=O)N1CC2CC[C@H]1CC2N[C@H]1CCc2cc(-n3c(-c4cccnc4N)nc4ccc(-n5cccn5)nc43)ccc21 (single isomer, unassigned) [Example 134, 1-[(1S,4S,5*)-5-{[(1S)-5-[2-(2-aminopyridin-3-yl)-5-(pyrazol-1-yl)imidazo[4,5-b]pyridin-3-yl]-2,3-dihydro-1H-inden-1-yl]amino}-2-azabicyclo[2.2.2]octan-2-yl]prop-2-en-1-one] | 2.71 | – | 0.232 | 0.0724 | 1.15 |
| C=CC(=O)N1C[C@@H]2C[C@H]1CC2N[C@H]1CCc2cc(-n3c(-c4cccnc4N)nc4ccc(-n5cccn5)nc43)ccc21 (single isomer, unassigned) [Example 135, 1-[(1S,4S,5*)-5-{[(1S)-5-[2-(2-aminopyridin-3-yl)-5-(pyrazol-1-yl)imidazo[4,5-b]pyridin-3-yl]-2,3-dihydro-1H-inden-1-yl]amino}-2-azabicyclo[2.2.1]heptan-2-yl]prop-2-en-1-one] | 0.478 | 0.302 | 0.152 | 0.0222 | – |
| C=CC(=O)N1C[C@@H]2C[C@H]1CC2N[C@H]1CCc2cc(-n3c(-c4cccnc4N)nc4ccc(-n5cccn5)nc43)ccc21 (single isomer, unassigned) [Example 136, 1-[(1S,4S,5*)-5-{[(1S)-5-[2-(2-aminopyridin-3-yl)-5-(pyrazol-1-yl)imidazo[4,5-b]pyridin-3-yl]-2,3-dihydro-1H-inden-1-yl]amino}-2-azabicyclo[2.2.1]heptan-2-yl]prop-2-en-1-one] | 1.95 | – | 0.211 | 0.0958 | 0.52 |
| C=CC(=O)N1C[C@H]2C[C@@H]1CC2N[C@H]1CCc2cc(-n3c(-c4cccnc4N)nc4ccc(-n5cccn5)nc43)ccc21 (single isomer, unassigned) [Example 137, 1-[(1R,4R,5*)-5-{[(1S)-5-[2-(2-aminopyridin-3-yl)-5-(pyrazol-1-yl)imidazo[4,5-b]pyridin-3-yl]-2,3-dihydro-1H-inden-1-yl]amino}-2-azabicyclo[2.2.1]heptan-2-yl]prop-2-en-1-one] | 0.244 | – | 0.0716 | 0.0142 | 0.161 |
| C=CC(=O)N1C[C@H]2C[C@@H]1CC2N[C@H]1CCc2cc(-n3c(-c4cccnc4N)nc4ccc(-n5cccn5)nc43)ccc21 (single isomer, unassigned) [Example 138, 1-[(1R,4R,5*)-5-{[(1S)-5-[2-(2-aminopyridin-3-yl)-5-(pyrazol-1-yl)imidazo[4,5-b]pyridin-3-yl]-2,3-dihydro-1H-inden-1-yl]amino}-2-azabicyclo[2.2.1]heptan-2-yl]prop-2-en-1-one] | 1.81 | – | 0.744 | 0.289 | 0.963 |
| C=CC(=O)N1CCC(N[C@H]2CCc3cc(-n4c(-c5cccnc5N)nc5ccc(-n6cccn6)nc54)ccc32)C(O)C1 (single isomer, unassigned) [Example 139, 1-[(3*,4*)-4-{[(1S)-5-[2-(2-aminopyridin-3-yl)-5-(pyrazol-1-yl)imidazo[4,5-b]pyridin-3-yl]-2,3-dihydro-1H-inden-1-yl]amino}-3-hydroxypiperidin-1-yl]prop-2-en-1-one] | 0.114 | – | 0.0297 | 0.0135 | 0.0419 |
| C=CC(=O)N1CCC(N[C@H]2CCc3cc(-n4c(-c5cccnc5N)nc5ccc(-n6cccn6)nc54)ccc32)C(O)C1 (single isomer, unassigned) [Example 140, 1-[(3*,4*)-4-{[(1S)-5-[2-(2-aminopyridin-3-yl)-5-(pyrazol-1-yl)imidazo[4,5-b]pyridin-3-yl]-2,3-dihydro-1H-inden-1-yl]amino}-3-hydroxypiperidin-1-yl]prop-2-en-1-one] | 3.58 | – | > 1 | 0.37 | 1.49 |
| C=CC(=O)N1CCC(N[C@H]2CCc3cc(-n4c(-c5cccnc5N)nc5ccc(-n6cccn6)nc54)ccc32)C(O)C1 (single isomer, unassigned) [Example 141, 1-[(3*,4*)-4-{[(1S)-5-[2-(2-aminopyridin-3-yl)-5-(pyrazol-1-yl)imidazo[4,5-b]pyridin-3-yl]-2,3-dihydro-1H-inden-1-yl]amino}-3-hydroxypiperidin-1-yl]prop-2-en-1-one] | 0.872 | – | 0.554 | 0.148 | 1.7 |
| C=CC(=O)N1CCC(N[C@H]2CCc3cc(-n4c(-c5cccnc5N)nc5ccc(-n6cccn6)nc54)ccc32)C(O)C1 (single isomer, unassigned) [Example 142, 1-[(3*,4*)-4-{[(1S)-5-[2-(2-aminopyridin-3-yl)-5-(pyrazol-1-yl)imidazo[4,5-b]pyridin-3-yl]-2,3-dihydro-1H-inden-1-yl]amino}-3-hydroxypiperidin-1-yl]prop-2-en-1-one] | > 10 | – | > 1 | > 1 | 3.46 |
| C=CC(=O)N1CCC(N[C@@H]2c3ccc(-n4c(-c5cccnc5N)nc5ccc(-n6cccn6)nc54)cc3CC2F)C[C@H]1C (single isomer, unassigned) [Example 143, 1-((2R,4*)-4-(((1R,2*)-5-(2-(2-aminopyridin-3-yl)-5-(1H-pyrazol-1-yl)-3H-imidazo[4,5-b]pyridin-3-yl)-2-fluoro-2,3-dihydro-1H-inden-1-yl)amino)-2-methylpiperidin-1-yl)prop-2-en-1-one] | 1.26 | 0.499 | 0.353 | 0.0602 | – |
| C=CC(=O)N1CCC(N[C@@H]2c3ccc(-n4c(-c5cccnc5N)nc5ccc(-n6cccn6)nc54)cc3CC2F)C[C@H]1C (single isomer, unassigned) [Example 144, 1-((2R,4*)-4-(((1R,2*)-5-(2-(2-aminopyridin-3-yl)-5-(1H-pyrazol-1-yl)-3H-imidazo[4,5-b]pyridin-3-yl)-2-fluoro-2,3-dihydro-1H-inden-1-yl)amino)-2-methylpiperidin-1-yl)prop-2-en-1-one] | 1.18 | – | 0.0741 | 0.026 | 0.293 |
| C=CC(=O)N1CCC(N[C@@H]2c3ccc(-n4c(-c5cccnc5N)nc5ccc(-n6cccn6)nc54)cc3CC2F)C[C@H]1C (single isomer, unassigned) [Example 145, 1-((2R,4*)-4-(((1R,2*)-5-(2-(2-aminopyridin-3-yl)-5-(1H-pyrazol-1-yl)-3H-imidazo[4,5-b]pyridin-3-yl)-2-fluoro-2,3-dihydro-1H-inden-1-yl)amino)-2-methylpiperidin-1-yl)prop-2-en-1-one] | 1.03 | – | 0.187 | 0.0297 | 0.436 |
| C=CC(=O)N1CCC(N[C@@H]2c3ccc(-n4c(-c5cccnc5N)nc5ccc(-n6cccn6)nc54)cc3CC2F)C[C@H]1C (single isomer, unassigned) [Example 146, 1-((2R,4*)-4-(((1R,2*)-5-(2-(2-aminopyridin-3-yl)-5-(1H-pyrazol-1-yl)-3H-imidazo[4,5-b]pyridin-3-yl)-2-fluoro-2,3-dihydro-1H-inden-1-yl)amino)-2-methylpiperidin-1-yl)prop-2-en-1-one] | 1.58 | – | 0.0784 | 0.0229 | 0.448 |
| C=CC(=O)N1CCN(NC2CCc3cc(-n4c(-c5cccnc5N)nc5ccc(-n6cccn6)nc54)ccc32)CC1 (single isomer, unassigned) [Example 147, (*)-1-(4-((5-(2-(2-aminopyridin-3-yl)-5-(1H-pyrazol-1-yl)-3H-imidazo[4,5-b]pyridin-3-yl)-2,3-dihydro-1H-inden-1-yl)amino)piperazin-1-yl)prop-2-en-1-one] | 0.903 | – | 0.151 | 0.032 | 0.398 |
